Among the data in ChEMBL document CHEMBL2424655, “Design, synthesis and biological evaluation of peptide derivatives of L-dopa as anti-parkinsonian agents” (2013) are Activity values, retold here.

Square brackets hold non-standard residues; d marks the D form. Peptide text beside a SMILES is read from it. * marks the point of attachment. Dopa = N[C@@H](Cc1ccc(O)c(O)c1)C(=O)O; αMeF = C[C@](N)(Cc1ccccc1)C(=O)O; Cha = N[C@@H](CC1CCCCC1)C(=O)O; Ac6c = NC1(C(=O)O)CCCCC1; Ac5c = NC1(C(=O)O)CCCC1; Aib = CC(C)(N)C(=O)O; OcHex = C1CCC(O*)CC1; OBn = c1ccc(CO*)cc1; OiPr = CC(C)O*

One test has as its system Rattus norvegicus. Nature of the test: Antiparkinsonian activity in 6-hydroxydopamine lesioned Wistar rat assessed as AUC activity by measuring contralateral rotations at 63.4 umol/kg, ip measured every 10 mins for 240 mins relative to L-DOPA. Type of test: functional.
For the molecule `COC(=O)[C@H](Cc1ccc(O)c(O)c1)NC(=O)C(C)(C)N.Cl` (H-[Aib]-[Dopa]-OMe), the Activity was found to be 69%.
With `COC(=O)[C@H](Cc1ccc(OC(C)=O)c(OC(C)=O)c1)NC(=O)[C@@H](N)CC1CCCCC1.Cl`, the Activity was determined as 32%.

A further test relates to Rattus norvegicus. Nature of the test: Antiparkinsonian activity in 6-hydroxydopamine lesioned Wistar rat assessed as duration of activity at 63.4 umol/kg, ip measured every 10 mins for 240 mins relative to L-DOPA. Type of test: functional.
`COC(=O)[C@H](Cc1ccc(O)c(O)c1)NC(=O)C(C)(C)N.Cl` (H-[Aib]-[Dopa]-OMe): the Activity was 63%.
Still for that read-out and setting: the figure for `COC(=O)[C@H](Cc1ccc(OC(C)=O)c(OC(C)=O)c1)NC(=O)[C@@H](N)CC1CCCCC1.Cl` is 27%.

For another test, the system named is Rattus norvegicus. Nature of the test: Antiparkinsonian activity in 6-hydroxydopamine lesioned Wistar rat assessed as duration of activity at 63.4 umol/kg, po measured every 10 mins for 240 mins relative to L-DOPA. Type of test: functional.
For the molecule `COC(=O)[C@H](Cc1ccc(O)c(O)c1)NC(=O)C1(N)CCCC1.Cl` (H-[Ac5c]-[Dopa]-OMe), the Activity is on record as 97%.
On the same count and under the same terms, the figure for `CC(C)CCOC(=O)[C@H](Cc1ccc(O)c(O)c1)NC(=O)C(C)(C)N.Cl` is 49%.
For `COC(=O)[C@H](Cc1ccc(OC(C)=O)c(OC(C)=O)c1)NC(=O)C1(N)CCCCC1.Cl`, the Activity worked out at 42%.
On to `COC(=O)[C@H](Cc1ccc(OC(C)=O)c(OC(C)=O)c1)NC(=O)C(C)(C)N.Cl`, for which the Activity worked out at 73%.
With `COC(=O)[C@H](Cc1ccc(O)c(O)c1)NC(=O)C1(N)CCCCC1.Cl` (H-[Ac6c]-[Dopa]-OMe), the Activity was 84%.
`COC(=O)[C@H](Cc1ccc(OC(C)=O)c(OC(C)=O)c1)NC(=O)C1(N)CCCC1.Cl`: the Activity stood at 44%.
Consider `CC(C)(N)C(=O)N[C@@H](Cc1ccc(O)c(O)c1)C(=O)OC1CCCCC1.Cl` (H-[Aib]-[Dopa]-OcHex), for which the Activity is listed as 70%.
On the same count and under the same terms, the figure for `CC(=O)Oc1ccc(C[C@H](NC(=O)C(C)(C)N)C(=O)O)cc1OC(C)=O.Cl` is 45%; for `CC(C)(N)C(=O)N[C@@H](Cc1ccc(O)c(O)c1)C(=O)OCc1ccccc1.Cl` (H-[Aib]-[Dopa]-OBn) it is 38%; for `CC(C)OC(=O)[C@H](Cc1ccc(O)c(O)c1)NC(=O)C(C)(C)N.Cl` (H-[Aib]-[Dopa]-OiPr) it is 72%.
Same read-out and setting: the figure for `C[C@](N)(Cc1ccccc1)C(=O)N[C@@H](Cc1ccc(O)c(O)c1)C(=O)O.Cl` (H-[αMeF]-[Dopa]-OH) is 40%; for `CC(C)(N)C(=O)N[C@@H](Cc1ccc(O)c(O)c1)C(=O)O.Cl` (H-[Aib]-[Dopa]-OH) it is 57%.
The same measure, in the same setting: the figure for `COC(=O)[C@H](Cc1ccc(O)c(O)c1)NC(=O)[C@@H](N)CC1CCCCC1.Cl` (H-[Cha]-[Dopa]-OMe) is 45%.

Another test deals with Rattus norvegicus. In words: Antiparkinsonian activity in 6-hydroxydopamine lesioned Wistar rat assessed as AUC activity by measuring contralateral rotations at 63.4 umol/kg, po measured every 10 mins for 240 mins relative to L-DOPA. The class given is functional.
Turning to `COC(=O)[C@H](Cc1ccc(O)c(O)c1)NC(=O)C1(N)CCCC1.Cl` (H-[Ac5c]-[Dopa]-OMe), the Activity was found to be 78%.
Same read-out and setting: the value for `CC(C)CCOC(=O)[C@H](Cc1ccc(O)c(O)c1)NC(=O)C(C)(C)N.Cl` was 79%.
Still for that read-out and setting: the value for `COC(=O)[C@H](Cc1ccc(OC(C)=O)c(OC(C)=O)c1)NC(=O)C1(N)CCCCC1.Cl` was 42%.
On to `COC(=O)[C@H](Cc1ccc(OC(C)=O)c(OC(C)=O)c1)NC(=O)C(C)(C)N.Cl`, for which the Activity is given as 55%.
As for `COC(=O)[C@H](Cc1ccc(O)c(O)c1)NC(=O)C1(N)CCCCC1.Cl` (H-[Ac6c]-[Dopa]-OMe), the Activity amounted to 88%.
Still for that read-out and setting: the figure for `COC(=O)[C@H](Cc1ccc(OC(C)=O)c(OC(C)=O)c1)NC(=O)C1(N)CCCC1.Cl` is 39%; for `CC(C)(N)C(=O)N[C@@H](Cc1ccc(O)c(O)c1)C(=O)OC1CCCCC1.Cl` (H-[Aib]-[Dopa]-OcHex) it is 105%; for `CC(=O)Oc1ccc(C[C@H](NC(=O)C(C)(C)N)C(=O)O)cc1OC(C)=O.Cl` it is 42%.
On to `CC(C)(N)C(=O)N[C@@H](Cc1ccc(O)c(O)c1)C(=O)OCc1ccccc1.Cl` (H-[Aib]-[Dopa]-OBn), for which the Activity is listed as 46%.
Consider `CC(C)OC(=O)[C@H](Cc1ccc(O)c(O)c1)NC(=O)C(C)(C)N.Cl` (H-[Aib]-[Dopa]-OiPr), for which the Activity was determined as 116%.
For the molecule `C[C@](N)(Cc1ccccc1)C(=O)N[C@@H](Cc1ccc(O)c(O)c1)C(=O)O.Cl` (H-[αMeF]-[Dopa]-OH), the Activity turned out to be 26%.
As for `CC(C)(N)C(=O)N[C@@H](Cc1ccc(O)c(O)c1)C(=O)O.Cl` (H-[Aib]-[Dopa]-OH), the Activity amounted to 65%.
Turning to `COC(=O)[C@H](Cc1ccc(O)c(O)c1)NC(=O)[C@@H](N)CC1CCCCC1.Cl` (H-[Cha]-[Dopa]-OMe), the Activity turned out to be 40%.

The test system of the next test is Rattus norvegicus. In words: Antiparkinsonian activity in 6-hydroxydopamine lesioned Wistar rat assessed as peak activity by measuring contralateral rotations at 63.4 umol/kg, ip measured every 10 mins for 240 mins relative to L-DOPA. The class given is functional.
On to `COC(=O)[C@H](Cc1ccc(O)c(O)c1)NC(=O)C(C)(C)N.Cl` (H-[Aib]-[Dopa]-OMe), for which the Activity was determined as 77%.
As to `COC(=O)[C@H](Cc1ccc(OC(C)=O)c(OC(C)=O)c1)NC(=O)[C@@H](N)CC1CCCCC1.Cl`, the Activity is recorded as 51%.

The next test deals with Rattus norvegicus. Nature of the test: Antiparkinsonian activity in 6-hydroxydopamine lesioned Wistar rat assessed as peak activity by measuring contralateral rotations at 63.4 umol/kg, po measured every 10 mins for 240 mins relative to L-DOPA. Type of test: functional.
As to `COC(=O)[C@H](Cc1ccc(O)c(O)c1)NC(=O)C1(N)CCCC1.Cl` (H-[Ac5c]-[Dopa]-OMe), the Activity came to 105%.
The same measure, in the same setting: the value for `CC(C)CCOC(=O)[C@H](Cc1ccc(O)c(O)c1)NC(=O)C(C)(C)N.Cl` was 59%.
On the same count and under the same terms, the figure for `COC(=O)[C@H](Cc1ccc(OC(C)=O)c(OC(C)=O)c1)NC(=O)C1(N)CCCCC1.Cl` is 55%.
Regarding `COC(=O)[C@H](Cc1ccc(OC(C)=O)c(OC(C)=O)c1)NC(=O)C(C)(C)N.Cl`, the Activity is listed as 69%.
Take `COC(=O)[C@H](Cc1ccc(O)c(O)c1)NC(=O)C1(N)CCCCC1.Cl` (H-[Ac6c]-[Dopa]-OMe): the Activity worked out at 107%.
On the same count and under the same terms, the figure for `COC(=O)[C@H](Cc1ccc(OC(C)=O)c(OC(C)=O)c1)NC(=O)C1(N)CCCC1.Cl` is 61%.
Same read-out and setting: the figure for `CC(C)(N)C(=O)N[C@@H](Cc1ccc(O)c(O)c1)C(=O)OC1CCCCC1.Cl` (H-[Aib]-[Dopa]-OcHex) is 82%.
Still for that read-out and setting: the value for `CC(=O)Oc1ccc(C[C@H](NC(=O)C(C)(C)N)C(=O)O)cc1OC(C)=O.Cl` was 66%.
Turning to `CC(C)(N)C(=O)N[C@@H](Cc1ccc(O)c(O)c1)C(=O)OCc1ccccc1.Cl` (H-[Aib]-[Dopa]-OBn), the Activity is recorded as 71%.
Turning to `CC(C)OC(=O)[C@H](Cc1ccc(O)c(O)c1)NC(=O)C(C)(C)N.Cl` (H-[Aib]-[Dopa]-OiPr), the Activity is 149%.
On the same count and under the same terms, the figure for `C[C@](N)(Cc1ccccc1)C(=O)N[C@@H](Cc1ccc(O)c(O)c1)C(=O)O.Cl` (H-[αMeF]-[Dopa]-OH) is 37%; for `CC(C)(N)C(=O)N[C@@H](Cc1ccc(O)c(O)c1)C(=O)O.Cl` (H-[Aib]-[Dopa]-OH) it is 80%; for `COC(=O)[C@H](Cc1ccc(O)c(O)c1)NC(=O)[C@@H](N)CC1CCCCC1.Cl` (H-[Cha]-[Dopa]-OMe) it is 53%.
